Assay results as given in patent US9499509B2, “Dihydrochalcone derivatives and their use as antibiotic agents” (UNIVERSITÉ DU QUÉBEC À CHICOUTIMI, priority 2012, dated 2016).
Converted amounts (≈) assume the structure as drawn. Counter-ions that a name gives are not always drawn. Like-named read-outs stand apart in the source and are kept apart here.

Tests used:
[1] = tested on: S. aureus wild type strain (ATCC 25923); assay: Antibiotic assay (resazurin, Example 1), S. aureus wild type; type: cell-based, Staphylococcus aureus
Protocol: (§1) Bacteria Strain. […] The MRSA were obtained as further described below.
(§2) Antibiotic agents. Cyprofloxacin and erythromycin were provided by Sigma-Aldrich. Gentamicin sulfate and vancomycin hydrochloride were provided by Calbiochem.
MRSA. Ten (10) strains of MRSA obtained as described above were tested along with an S. aureus wild type (WT) strain (ATCC25923).

Corynebacterium jeikeium = assay: Antibiotic assay (resazurin, Example 1), Corynebacterium jeikeium; type: cell-based; conditions: for MIC: read-out: Minimum Inhibitory Concentration (MIC)
Protocol: as §1, §2
Five additional strains were tested: Streptococcus pneumoniae, Streptococcus agalactiae, Streptococcus pyogenes, Enterococcus faecalis and Corynebacterium jeikeium.

[2] = S. aureus WT (ATCC 25923), read-out: IC50
[3] = Table 5, same values as IC50 of Table 2, read-out: S. aureus WT ATCC 25923 (toxicity on bacteria)
[4] = Coryne. jeikeium 14139, read-out: IC50

Row | SMILES | Minimum Inhibitory Concentration (MIC) ([1]; S. aureus WT (ATCC 25923)) | IC50 [1, 2] | IC50 [1, 3] | Minimum Inhibitory Concentration (MIC) (Corynebacterium jeikeium; Coryne. jeikeium 14139) | IC50 (Corynebacterium jeikeium; [4]) | other results
1 | CN[C@H](CC(C)C)C(=O)N[C@H]1C(=O)N[C@@H](CC(N)=O)C(=O)N[C@H]2C(=O)N[C@H]3C(=O)N[C@H](C(=O)N[C@H](C(=O)O)c4cc(O)cc(O)c4-c4cc3ccc4O)[C@H](O)c3ccc(c(Cl)c3)Oc3cc2cc(c3O[C@@H]2O[C@H](CO)[C@@H](O)[C@H](O)[C@H]2O[C@H]2C[C@](C)(N)[C@H](O)[C@H](C)O2)Oc2ccc(cc2Cl)[C@H]1O [Vancomycin, vancomycin hydrochloride, reference compound] | – | – | – | – | – | IC50 ([1]; Staphylococcus aureus, ATCC25923): 400 ± 200 nM; MIC ([1]; Staphylococcus aureus, ATCC25923, read-out: Minimum Inhibitory Concentration (MIC)): 1.44 µM; IC50 (Corynebacterium jeikeium; Corynebacterium jeikeium): 220 ± 30 nM; MIC (Corynebacterium jeikeium; Corynebacterium jeikeium): 0.35 µM
2 | O=C(O)c1cn(C2CC2)c2cc(N3CCNCC3)c(F)cc2c1=O [Ciprofloxacin, reference compound] | – | – | – | – | – | IC50 ([1]; Staphylococcus aureus, ATCC25923, S. aureus WT ATCC 25923, read-out: IC50): 400 ± 200 nM; MIC ([1]; Staphylococcus aureus, ATCC25923, S. aureus WT ATCC 25923, read-out: Minimum Inhibitory Concentration (MIC)): 47.9 µM (≈ 15.9 µg/mL); IC50 (Corynebacterium jeikeium; Corynebacterium jeikeium, Coryne. jeikeium 14139, read-out: IC50): 1420 ± 70 nM; MIC (Corynebacterium jeikeium; Corynebacterium jeikeium, Coryne. jeikeium 14139): 16.4 µM (≈ 5.43 µg/mL)
3 | O=C(CCc1ccccc1)c1c(O)cc(O)c(C/C=C/c2ccc(O)cc2)c1O [Compound III] | (5.81) μM | 2200 ± 600 nM | 2200 ± 600 nM | (200) μM | 9000 ± 2000 nM | –
4 | COc1cc(O)c(C(=O)CCc2ccc(O)cc2)c(O)c1C/C=C/c1ccc(O)cc1 [Compound I] | (6.87) μM | 2800 ± 900 nM | 2800 ± 900 nM | (67.5) μM | 14000 ± 3000 nM | –
5 | COc1ccc(CCC(=O)c2c(O)cc(O)c(C/C=C/c3ccc(O)cc3)c2O)cc1 [Compound II] | (6.47) μM | 2700 ± 700 nM | 2700 ± 700 nM | (112) μM | – | –
